For assay [1], the target named is T1, human FPR1 (Homo sapiens, UniProt P21462).
T1 sequence (P21462 1-350): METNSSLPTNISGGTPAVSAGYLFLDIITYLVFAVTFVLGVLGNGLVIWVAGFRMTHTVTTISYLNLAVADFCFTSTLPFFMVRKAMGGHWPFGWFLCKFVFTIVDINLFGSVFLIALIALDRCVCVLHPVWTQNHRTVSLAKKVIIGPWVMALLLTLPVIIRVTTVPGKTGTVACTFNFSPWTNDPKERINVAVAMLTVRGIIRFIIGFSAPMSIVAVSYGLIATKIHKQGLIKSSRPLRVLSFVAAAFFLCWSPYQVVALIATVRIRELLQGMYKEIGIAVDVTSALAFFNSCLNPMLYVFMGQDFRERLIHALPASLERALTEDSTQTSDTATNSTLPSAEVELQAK
The experiment in a line: FPR1 cyclic adenosine monophosphate (cAMP) assay. The class given is cell-based. As to conditions: CHO cells overexpressing human FPR1; forskolin 10 μM; inhibition of cAMP production; HTRF; read-out: hFPR1 cAMP2 EC50. The method, then:
(§1) FPR2 and FPR1 Cyclic Adenosine Monophosphate (cAMP) Assays. A mixture of forskolin (5 μM final for FPR2 or 10 μM final for FPR1) and IBMX (200 μM final) were added to 384-well Proxiplates (Perkin-Elmer) pre-dotted with test compounds in DMSO (1% final) at final concentrations in the range of 0.020 nM to 100 μM. Chinese Hamster Ovary cells (CHO) overexpressing human FPR1 or human FPR2 receptors were cultured in F-12 (Ham's) medium supplemented with 10% qualified FBS, 250 μg/ml zeocin and 300 μg/ml hygromycin (Life Technologies). Reactions were initiated by adding 2,000 human FPR2 cells per well or 4,000 human FPR1 cells per well in Dulbecco's PBS (with calcium and magnesium) (Life Technologies) supplemented with 0.1% BSA (Perkin-Elmer). The reaction mixtures were incubated for 30 min at room temperature. The level of intracellular cAMP was determined using the HTRF HiRange cAMP assay reagent kit (Cisbio) according to manufacturer's instruction. Solutions of cryptate conjugated anti-cAMP and d2 flurorophore-labelled cAMP were made in a supplied lysis buffer separately. Upon completion of the reaction, the cells were lysed with equal volume of the d2-cAMP solution and anti-cAMP solution. After a 1-h room temperature incubation, time-resolved fluorescence intensity was measured using the Envision (Perkin-Elmer) at 400 nm excitation and dual emission at 590 nm and 665 nm. A calibration curve was constructed with an external cAMP standard at concentrations ranging from 1 μM to 0.1 μM by plotting the fluorescent intensity ratio from 665 nm emission to the intensity from the 590 nm emission against cAMP concentrations. The potency and activity of a compound to inhibit cAMP production was then determined by fitting to a 4-parametric logistic equation from a plot of cAMP level versus compound concentrations.
A general note: Changes in cAMP serve as a functional read-out for many G protein-coupled receptors.

Assay [2] addresses T2, human FPR2 (Homo sapiens, UniProt P25090).
T2 sequence (P25090 1-351): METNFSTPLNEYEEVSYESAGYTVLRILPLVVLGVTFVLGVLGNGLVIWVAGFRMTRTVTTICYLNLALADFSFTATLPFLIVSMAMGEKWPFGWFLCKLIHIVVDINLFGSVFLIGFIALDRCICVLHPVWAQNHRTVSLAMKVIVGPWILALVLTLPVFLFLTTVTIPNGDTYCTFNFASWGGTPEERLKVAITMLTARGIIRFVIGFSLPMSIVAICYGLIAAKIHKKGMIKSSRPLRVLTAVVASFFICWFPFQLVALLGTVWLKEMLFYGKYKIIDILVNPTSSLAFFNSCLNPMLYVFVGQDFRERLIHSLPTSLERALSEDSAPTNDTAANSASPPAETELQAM
Put plainly: FPR2 cyclic adenosine monophosphate (cAMP) assay. The class given is cell-based. The following applies: CHO cells overexpressing human FPR2; forskolin 5 μM; inhibition of cAMP production; HTRF; read-out: hFPR2 cAMP2 EC50. The method, then: as §1

With `COc1cc(F)c(-n2cc(-c3ccccc3)nc2NC(=O)c2ccc(OC(F)F)cc2)c(F)c1` [Example 1, N-[1-(2,6-Difluoro-4-methoxyphenyl)-4-phenyl-1H-imidazol-2-yl]-4-(difluoromethoxy)benzamide], the EC50 in assay [1] is 0.2 µM; in assay [2], 0.004 µM.
For `COc1ccc(-n2cc(-c3ccccc3)nc2NC(=O)c2ccc(OC(F)F)cc2)cc1` [Example 2, 4-(Difluoromethoxy)-N-[1-(4-methoxyphenyl)-4-phenyl-1H-imidazol-2-yl]benzamide], the EC50 is 0.038 µM in assay [1] and 0.003 µM in assay [2].
For the molecule `COc1cccc(-c2cn(-c3c(F)cc(OC)cc3F)c(NC(=O)c3ccc(OC(F)F)cc3)n2)c1` [Example 3, N-[1-(2,6-Difluoro-4-methoxyphenyl)-4-(3-methoxyphenyl)-1H-imidazol-2-yl]-4-(difluoromethoxy)benzamide], the figures for the EC50 in assay [1] and in assay [2] were 0.088 µM and 0.008 µM, respectively.
In the case of `COc1cc(F)c(-n2cc(-c3ccc(F)cc3)nc2NC(=O)c2ccc(OC(F)F)cc2)c(F)c1` [Example 4, N-[1-(2,6-Difluoro-4-methoxyphenyl)-4-(4-fluorophenyl)-1H-imidazol-2-yl]-4-(difluoromethoxy)benzamide], the values for the EC50 in assay [1] and in assay [2] were 0.4 µM and 0.011 µM, respectively.
`COc1cc(F)c(-n2cc(-c3ccc(Cl)c(C)c3)nc2NC(=O)c2ccc(OC(F)F)cc2)c(F)c1` [Example 5, N-[4-(4-Chloro-3-methylphenyl)-1-(2,6-difluoro-4-methoxyphenyl)-1H-imidazol-2-yl]-4-(difluoromethoxy)benzamide]: the values for the EC50 in assay [1] and in assay [2] were 0.14 µM and 0.047 µM, respectively.
As for `COc1cc(F)c(-n2cc(-c3ccc(C(F)(F)F)cc3)nc2NC(=O)c2ccc(OC(F)F)cc2)c(F)c1` [Example 6, N-[1-(2,6-Difluoro-4-methoxyphenyl)-4-[4-(trifluoromethyl)phenyl]-1H-imidazol-2-yl]-4-(difluoromethoxy)benzamide], the EC50 in assay [1] came out at 0.12 µM; in assay [2] it was 0.076 µM.
The corresponding values for `COc1cc(F)c(-n2cc(-c3ccc(OC(F)F)cc3)nc2NC(=O)c2ccc(OC(F)F)cc2)c(F)c1` [Example 7, N-[1-(2,6-Difluoro-4-methoxyphenyl)-4-[4-(difluoromethoxy)phenyl]-1H-imidazol-2-yl]-4-(difluoromethoxy)benzamide] are 0.19 µM and 0.033 µM.
Regarding `COc1cc(F)c(-n2c(NC(=O)c3ccc(OC(F)F)cc3)nc(-c3ccccc3)c2C)c(F)c1` [Example 8, N-[1-(2,6-Difluoro-4-methoxyphenyl)-5-methyl-4-phenyl-1H-imidazol-2-yl]-4-(difluoromethoxy)benzamide], the figures for the EC50 in assay [1] and in assay [2] were 0.23 µM and 0.008 µM, respectively.
`COc1cc(F)c(-n2cc(-c3ccc4ccccc4c3)nc2NC(=O)c2ccc(OC(F)F)cc2)c(F)c1` [Example 9, N-[1-(2,6-Difluoro-4-methoxyphenyl)-4-(naphthalen-2-yl)-1H-imidazol-2-yl]-4-(difluoromethoxy)benzamide]: the EC50 in assay [1] is 0.46 µM; in assay [2] it was 0.22 µM.
`COc1cc(F)c(-n2cc(-c3cccc(F)c3)nc2NC(=O)c2ccc(OC(F)F)cc2)c(F)c1` [Example 10, N-[1-(2,6-Difluoro-4-methoxyphenyl)-4-(3-fluorophenyl)-1H-imidazol-2-yl]-4-(difluoromethoxy)benzamide]: the EC50 in assay [1] is 0.2 µM; in assay [2], 0.007 µM.
The matching figures for `COc1cc(F)c(-n2cc(-c3ccc(Cl)cc3)nc2NC(=O)c2ccc(OC(F)F)cc2)c(F)c1` [Example 11, N-[4-(4-Chlorophenyl)-1-(2,6-difluoro-4-methoxyphenyl)-1H-imidazol-2-yl]-4-(difluoromethoxy)benzamide]: 0.14 µM and 0.024 µM.
Consider `COc1cc(F)c(-n2cc(-c3cccc(Cl)c3)nc2NC(=O)c2ccc(OC(F)F)cc2)c(F)c1` [Example 12, N-[4-(3-Chlorophenyl)-1-(2,6-difluoro-4-methoxyphenyl)-1H-imidazol-2-yl]-4-(difluoromethoxy)benzamide], for which the figures for the EC50 in assay [1] and in assay [2] were 0.45 µM and 0.015 µM, respectively.

Broadly, the EC50 is the concentration giving half of the maximal effect.
